Measured values reported in patent US20080220056A1, “Treatment for liver disease” (UNIVERSITY OF SOUTHAMPTON, priority 2002, published 2008).

Columns and labels:
[1] = tested on: rat hepatic stellate cells; assay: Morphology and detachment of culture-activated rat hepatic stellate cells (light microscopy); format: cell-based
Source text: (§1) Rat hepatic stellate cells (HSCs) were isolated by pronase/collagenase perfusion and purified by isopycnic density centrifugation in Opti-prep™ (Nycomed, Amersham, England) and elutriation essentially as previously described (Bahr et al., Hepatology (1999) 29:839-848). Human hepatic stellate cells were isolated from discarded resected liver via a similar protocol (Trim et al., J. Biol. Chem., (2000) 275:6657-6663). The use of human liver tissue for scientific investigation was approved by the UK South and West Local Research Ethics Committee and was subject to patient consent.
(§2) It has been shown recently that liver myofibroblasts may contribute to liver fibrogenesis and that liver myofibroblasts may have the potential to contaminate passaged hepatic stellate cell cultures (Knittel et al., Gastronenterology, (1999) 117:1205-1221). In this study, only primary cultures of hepatic stellate cells were used, which were desmin and glial fibrillary acid protein positive (markers shown to be expressed in hepatic stellate cells, but not liver myofibroblasts—Knittel et al., supra).
Cells were treated with gliotoxin dissolved in DMSO vehicle (added to medium from a 2000-fold molar concentrated stock). Control cells received DMSO vehicle only (i.e., 0.05% vol/vol). All other additions to culture medium were made from concentrated stocks dissolved in DMSO or by direct addition to culture medium. Protein contents of wells were determined using the Lowry assay (Lowry et al., J. Biol. Chem., (1951)193: 265-275).
Culture activated rat (14 day) and human (24 day) hepatic stellate cells were treated with DMSO solvent control or 1.5 μMol/L gliotoxin. […] Hepatic stellate cells changed from a flattened fibroblastic phenotype with distinct cell-cell interfaces to a substratum detached, rounded, and blebbed morphology.

[2] = tested on: rat hepatic stellate cells; assay: Low molecular weight DNA fragmentation (nucleosomal ladder) in rat hepatic stellate cells; format: cell-based
Experimental: Hepatic stellate cells cultured in 35-mm diameter dishes (Greiner) were harvested, pelleted by centrifugation and DNA fragmentation determined as outlined elsewhere (Elsharkawy et al., Hepatology (1999) 30:761-769). Propidium Iodide Flow-Activated Cell Sorting Analysis Detached cells were pelleted by centrifugation, washed in PBS, and resuspended in HYPO buffer (0.1% wt/vol) Na3Citrate and 0.1% (wt/vol) Triton™ X-100 containing […] propidium iodide and incubated for 1 hour. The cells were then analyzed by fluorescence-activated cell sorter (FACS) with a Becton Dickinson (San Jose, Calif.) FACScan instrument using a 488 nm excitation wavelength with a band pass filter set at 530 nm. Attached cells were scraped in HYPO buffer after washing cells with PBS.
The effect of gliotoxin on the cleavage of DNA to a nucleosomal ladder was examined because this phenomenon is characteristic of apoptosis. Culture activated (14-day) rat hepatic stellate cells in six well plates were treated with either 0.05% (vol/vol) DMSO for four hours or 1.5 μmol/L gliotoxin for zero hours, half an hour, one hour, two hours or four hours. At each time point, both detached and attached cells were harvested together and low molecular weight DNA (20,000 g supernatant) fragmentation determined as outlined in the materials and methods section. At least three separate experiments were performed. 1 kilobase DNA ladder (Promega) was used as a molecular weight marker.
The effect of various compounds on DNA laddering was then determined. Culture-activated (14-day) rat hepatic stellate cells in six-well plates were treated with:
After fours hours of treatment, DNA fragmentation was determined.
Culture activated (14 day) rat hepatic stellate cells in six well plates were treated with: • (a) 0.05% (vol/vol) DMSO; • (b) 1.5 μmol/L gliotoxin; • (c) 1.5 μmol/L gliotoxin with 100 μmol/L tamoxifen; • (d) 1.5 μmol/L gliotoxin with […] actinomycin d; • (e) 1.5 μmol/L gliotoxin with 10 μmol/L cycloheximide; • (f) 1.5 μmol/L gliotoxin with 10 μmol/L cyclosporin; • (g) 1.5 μmol/L gliotoxin with […] m-iodobenzylguanidine; • (h) 1.5 μmol/L gliotoxin with 50 μmol/L quin-2-am; • (i) 50 μmol/L guin-2-am alone; • (j) 250 μmol/L m-iodobenzylguanidine; • (k) 10 μmol/L cyclosporin; • (l) 10 μmol/L cycloheximide; • (m) 1 μg/ml actinomycin d; or • (n) 100 μmol/L tamoxifen.
After four hours of treatment, DNA fragmentation was determined as outlined in Materials and Methods.

[3] = tested on: human hepatic stellate cells; assay: Morphology of culture-activated human hepatic stellate cells (light microscopy); format: cell-based
Source text: as §1, §2
Cells were treated with gliotoxin dissolved in DMSO vehicle (added to medium from a 2000-fold molar concentrated stock). Control cells received DMSO vehicle only (i.e., 0.05% vol/vol). […] Protein contents of wells were determined using the Lowry assay (Lowry et al., J. Biol. Chem., (1951)193: 265-275). […]

[4] = tested on: NFκB responsive gene promoters; assay: NFκB responsive gene promoter activity; format: cell-based; conditions: 24 hours, versus untreated cells
[5] = tested on: activated hepatic stellate cells; assay: Apoptosis of activated hepatic stellate cells by acridine orange, sulfasalazine; format: cell-based; conditions: 24 hours
Experimental: (§3) Treatment of activated hepatic stellate cells with Sulfasalazine (at a concentration of 0.5, 1 or 2 mM) for 24 hours induced a dose-dependent increase in apoptosis visualised by both Acridine Orange staining (30%, 45% and 55% respectively).

[6] = tested on: NFκB DNA binding activity; assay: Electromobility shift assay, sulfasalazine-treated hepatic stellate cells; format: cell-based; conditions: day 7 HSC; 0.5, 1 and 2 mM for 24 hours
caspase 3 activity = assay: Caspase 3 activity, sulfasalazine-treated hepatic stellate cells; format: cell-based; conditions: 0.5, 1 or 2 mM
Experimental: as §3

[7] = tested on: experimentally induced fibrosis; assay: Recovery from carbon tetrachloride induced fibrosis in rats, sulfasalazine; format: in vivo, rat
Experimental: Adult male Sprague Dawley rats were treated twice weekly for six weeks by intraperitoneal injection of the hepatotoxin carbon tetrachloride and then allowed to recover for 24 hours prior to treatment with either vehicle control or sulfasalazine. Animals were then left to recover for either a further 16 or 72 hours.

MMP-3 = MMP-3 (Homo sapiens, UniProt P08254); conditions: T2G versus wild type; cited from earlier work
Sequence of MMP-3 (P08254 100-477, species assumed): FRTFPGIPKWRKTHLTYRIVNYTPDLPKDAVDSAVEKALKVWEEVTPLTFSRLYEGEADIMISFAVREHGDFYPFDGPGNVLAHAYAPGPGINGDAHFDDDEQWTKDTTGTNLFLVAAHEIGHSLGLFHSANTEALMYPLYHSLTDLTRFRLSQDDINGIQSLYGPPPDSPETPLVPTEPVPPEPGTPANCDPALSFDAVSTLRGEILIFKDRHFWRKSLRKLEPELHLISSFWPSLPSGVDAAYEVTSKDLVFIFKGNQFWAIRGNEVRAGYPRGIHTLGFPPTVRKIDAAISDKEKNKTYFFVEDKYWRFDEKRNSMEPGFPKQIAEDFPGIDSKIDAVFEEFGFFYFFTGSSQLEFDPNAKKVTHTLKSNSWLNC

[8] = tested on: human hepatic stellate cells; assay: Hepatic stellate cell apoptosis by acridine orange staining and counting (cycloheximide or serum deprivation), human cells; format: cell-based; conditions: human HSC; protein at 142.5 ng/ml
Experimental: (§4) Human hepatic stellate cells were extracted from the margins of normal human liver resected for colonic metastatic disease as previously described (Iredale et al., Clin. Sci., (1995) 89: 75-81). Rat hepatic stellate cells were extracted from normal rat liver by Pronase and collagenase digestion and purified by centrifugal elutriation as described (Arthur et al., J. Clin. Invest., (1989) 84:1076-1085). Extracted hepatic stellate cells were cultured on plastic until they were activated to a myofibroblastic phenotype after 7 to 10 days. Human and rat hepatic stellate cells were used for experiments after activation in primary culture or before fourth passage. Cells were cultured in Dulbecco's modified Eagle's medium in the presence of 16% fetal calf serum and antibiotics.
Apoptosis of hepatic stellate cells was induced by absolute serum deprivation, cycloheximide treatment (Issa et al., Gut (2001) 48: S48-S57), or exposure to nerve growth factor as previously described (Trim et al., Am. J. Pathol., (2000) 156, 1235-1243). Hepatic stellate cells were cultured in 24-well tissue culture plates. […] Following a 4 hour incubation at 37° C., nuclear morphology was assessed by adding acridine orange to each well (final concentration 1 μg/ml) and observing the cells under blue fluorescence. The total number of apoptotic bodies was counted, and any apoptotic bodies floating in the supernatant were included by racking up the objective lens. The total number of cells per field was counted, and an apoptotic index was calculated. Each condition was performed in duplicate, and three high power fields were counted for each well. […] To examine for autocrine effects, hepatic stellate cells were incubated for 18 hours with azide-free polyclonal neutralizing antibodies to TIMP-1 and a nonimmune IgG control (Santa Cruz Biotechnology, Inc., Santa Cruz, Calif.), and responses were assessed by acridine orange staining and counting.
Apoptosis was assessed by acridine orange staining. […]

[9] = tested on: rat hepatic stellate cells; assay: Hepatic stellate cell apoptosis by acridine orange staining and counting (cycloheximide or serum deprivation), rat cells; format: cell-based; conditions: rat HSC; protein at 142.5 ng/ml
Experimental: as §4
(§5) Apoptosis of hepatic stellate cells was induced by absolute serum deprivation, cycloheximide treatment (Issa et al., Gut (2001) 48: S48-S57), or exposure to nerve growth factor as previously described (Trim et al., Am. J. Pathol., (2000) 156, 1235-1243). Hepatic stellate cells were cultured in 24-well tissue culture plates. Rat and human hepatic stellate cells were exposed to proapoptotic stimuli with and without recombinant TIMP-1 (Biogenesis, Poole, UK) and other manipulations as detailed below. Following a 4 hour incubation at 37° C., nuclear morphology was assessed by adding acridine orange to each well (final concentration 1 μg/ml) and observing the cells under blue fluorescence. The total number of apoptotic bodies was counted, and any apoptotic bodies floating in the supernatant were included by racking up the objective lens. The total number of cells per field was counted, and an apoptotic index was calculated. Each condition was performed in duplicate, and three high power fields were counted for each well. […] To examine for autocrine effects, hepatic stellate cells were incubated for 18 hours with azide-free polyclonal neutralizing antibodies to TIMP-1 and a nonimmune IgG control (Santa Cruz Biotechnology, Inc., Santa Cruz, Calif.), and responses were assessed by acridine orange staining and counting.
Apoptosis was assessed by acridine orange staining. […] A normal cell lies adjacent to the apoptotic body. This technique was used to determine the percentage of apoptotic hepatic stellate cells following exposure to cyclohexamide in the presence or absence of TIMP-1. Hepatic stellate cells were exposed to 50 μM cyclohexamide and 0, 1, 10, 100 or 200 ng/ml of TIMP-1. Cells treated with serum alone were used as controls. […] Bovine serum albumin, used as a carrier for the TIMP-1 had no antiapoptotic effect.

[10] = tested on: caspase-3 activity in hepatic stellate cells; assay: Caspase-3 activity in cycloheximide-treated hepatic stellate cells; format: cell-based; conditions: wild type TIMP-1 or T2G mutant N-TIMP-1
Experimental: Apoptosis was quantified by a colorimetric assay for caspase-3 activity (Promega) according to the manufacturer's instructions.
Caspase-3 is a central caspase in the proapoptotic cascade (Hengartner, Nature (2000) 407, 770-776) and can be used as an alternative assay to assess apoptosis. Hepatic stellate cells were cultured in 50 μM cycloheximide with TIMP-1 at a concentration of 0, 1, 10, or 100 ng/ml. Controls where cells were incubated with either the caspase 3 inhibitor benzyloxycarbonyl-Val-Ala-Asp-fluoromethylketone or serum alone were also performed. Data are expressed as mean ±S.E. and are presented as percentage of control given the arbitrary value of 100%. * indicates p<0.001; n=3. […] Although the mean caspase-3 activity of the cells treated with 10 ng/ml TIMP-1 was slightly lower than that treated with 100 ng/ml of TIMP-1, this was not statistically significant (p=0.67 by Student's t test).

hepatic stellate cells = assay: Nerve growth factor induced apoptosis of hepatic stellate cells; format: cell-based; conditions: NGF 100 ng/ml, absolute serum deprivation
Experimental: as §5, with “counting. […]” for “counting.”

Which “effect on morphologic alterations / detachment caused by gliotoxin” value ([1]; rat HSC, with 1.5 μmol/L gliotoxin, Z-VAD-FMK 100 μmol/L, PDTC 300 μmol/L, tamoxifen 100 μmol/L, m-IBG 250 (mmol/L in the source), quin-2-am 50 μmol/L) does the source give for S=C(S)N1CCCC1 [pyrrolidine dithiocarbamate] here?
The value was “blocked the morphologic effects of gliotoxin”.

What about the “effect on gliotoxin-induced cleavage of DNA to a nucleosomal ladder” value ([2]; with 1.5 μmol/L gliotoxin, four hours, PDTC 300 μmol/L, tamoxifen 100 μmol/L, m-IBG 250 (mmol/L in the source), cyclosporin 10 μmol/L, quin-2-am 50 μmol/L) of the same molecule?
The value was “blocks the cleavage of DNA to a nucleosomal ladder”.

And the “effect on morphologic effects of gliotoxin” value ([3]; human HSC, cotreatment with gliotoxin)?
The value was “blocked the morphologic effects of gliotoxin”.

What does the source list for O=C(O)c1cc(/N=N/c2ccc(S(=O)(=O)Nc3ccccn3)cc2)ccc1O [Sulfasalazine]?
activity of NFκB responsive gene promoters (PGJ21 (4xNFκB), IL6 and IκBα) [4]: repressed the activity of three NFκB responsive gene promoters; activity of control 7×AP1 promoter [4]: but not a control 7×AP1 promoter; apoptosis by Acridine Orange staining ([5]; 0.5 mM): 30%; apoptosis by Acridine Orange staining ([5]; 1 mM): 45%; apoptosis by Acridine Orange staining ([5]; 2 mM): 55%; NFκB DNA binding activity [6]: dose dependently inhibited NFκB DNA binding activity; caspase 3 activity (caspase 3 activity): increased caspase 3 activity in a dose-dependent manner; collagen deposition (fibrosis) versus control livers ([7]; six weeks CCl4, 16 hours recovery): no significant difference in collagen deposition; collagen versus control livers ([7]; six weeks CCl4, 72 hours recovery): significantly less collagen; fibrosis score (1-4; 1 no fibrosis, 4 cirrhosis) ([7]; six weeks CCl4, 72 hours recovery, control livers 3): 1.5; numbers of activated hepatic stellate cells versus control livers ([7]; six weeks CCl4, treatment 24 hours later, 16 hours recovery): large reduction in numbers of activated hepatic stellate cells

With “T2G mutant N-TIMP-1: mutated nonfunctional TIMP-1, threonine to glycine at amino acid position 2, no MMP inhibitory activity” as the molecule, how does the “factor by which the mutation changes the inhibition constant of TIMP-1 for MMP-3” value (MMP-3) read?
The value was “over 1000”.

What about the “apoptosis induced by cycloheximide (acridine orange)” value [8] of the same molecule?
Its value is “had no inhibitory effect”.

What about the “apoptosis induced by cycloheximide (acridine orange)” value [9] of the same molecule?
Its value is “had no inhibitory effect”.

What about the “caspase-3 activity in cycloheximide-treated hepatic stellate cells” value [10] of the same molecule?
Its value is “no effect was observed”.

What does the source list for CS[C@]1(CO)C(=O)N2[C@H]3C(=CC=C[C@@H]3O)C[C@@]2(SC)C(=O)N1C [mt-glio, bis-dethio-bis(methylthio)-gliotoxin]?
morphologic alterations ([1]; culture activated (14 day) rat HSC, 1.5 μmol/L): had no effect on the morphology; cleavage of DNA to a nucleosomal ladder ([2]; rat HSC, 1.5 μmol/L, up to four hours): did not result in the cleavage of DNA to a nucleosomal ladder; morphologic alterations ([3]; culture activated (24 day) human HSC, 1.5 μmol/L): had no effect on the morphology

For “NGF: nerve growth factor, ligand of p75 on hepatic stellate cells”, which “apoptosis in hepatic stellate cells versus BSA carrier alone” value (hepatic stellate cells) is on record?
The value was “induced significantly more apoptosis”.
